Data published in patent publication US20260137706A1, “METHODS OF TREATING INFLAMMATORY DISEASES” (INTERLINE THERAPEUTICS, INC., priority 2023, published 2026).

Legend:
[1] = system: NF-κB pathway (SEAP) in THP1-Dual cells; assay: THP-1 Dual cell SEAP assay (L18-MDP stimulated); assay type: cell-based; conditions: Homo sapiens, THP1-Dual, read-out: NF-κB THP1 IC50 bin
How it was run: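 THP1-Dual cells (~25,000/well) were preincubated 30 min with serially diluted compounds, then stimulated with 10 ng/mL L18-MDP (final) for 20-24 h at 37 °C. Supernatant SEAP was read with QUANTI-Blue at OD 620-655 nm after 2 h. IC50 came from non-linear fits of % inhibition versus DMSO/L18-MDP controls after media-blank subtraction.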

[2] = molecular target: T1, binding of His-XIAP(BIR2)-avi fusion protein to GST-RIPK2 fusion protein (RIPK2/XIAP) (Homo sapiens, UniProt O43353); assay: RIPK2-XIAP binding competition PPI assay (TR-FRET); conditions: RIPK2/XIAP binding competition PPI assay; for Emax: Amax, read-out: PPI Amax bin; for IC50: read-out: PPI IC50 bin
T1 construct: made in house; host or cells: baculovirus infected Sf9 cells
How it was run: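 Compounds (in DMSO, 100-fold stock) incubated 120 min at 23 °C with 1 nM GST-RIPK2 (aa 1-310) and 25 nM His-XIAP(BIR2 aa 152-231)-avi, plus anti-His-XL665 and anti-GST-Tb, in pH 7.5 Tris buffer. Read-out: 665/520 nm emission ratio. Normalized to no-inhibitor (0%) and 50 nM GSK583 (−100%); Amax binned A–D.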

[3] = molecular target: T2, GST-RIPK2 fusion protein (human RIPK2, amino acids 1-310) (Homo sapiens, UniProt O43353); assay: RIPK2 binding competition assay (TR-FRET, Tracer 199 displacement); conditions: 10 nM Tracer 199, 1 nM GST-RIPK2, read-out: RIPK2 IC50
T2 construct: made in house; host or cells: baculovirus infected Sf9 cells
How it was run: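 GST-RIPK2 (human aa 1-310, Sf9-expressed; final 1 nM) with Tracer 199 (final 10 nM) and Tb-anti-GST (final 0.5 nM) in Tris pH 7.5 buffer, 45 min at 22 °C. TR-FRET 665/620 nm ratio after 337 nm excitation; normalized to no-inhibitor (0%) and no-protein (−100%), giving IC50.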

T1 sequence (O43353 1-310 limits assumed): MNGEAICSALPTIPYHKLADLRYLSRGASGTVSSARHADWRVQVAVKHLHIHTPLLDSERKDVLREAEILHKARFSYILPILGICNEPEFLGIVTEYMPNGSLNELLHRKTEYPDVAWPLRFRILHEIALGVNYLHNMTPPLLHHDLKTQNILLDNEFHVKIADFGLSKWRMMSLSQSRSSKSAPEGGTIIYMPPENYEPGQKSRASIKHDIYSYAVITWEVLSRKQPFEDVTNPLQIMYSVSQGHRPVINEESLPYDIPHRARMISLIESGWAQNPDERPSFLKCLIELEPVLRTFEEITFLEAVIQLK
T2 sequence (O43353 1-310): as the sequence (O43353 1-310 limits assumed) above

SMILES	IC50 [1] [nM]	Emax [2] [%]	IC50 [2] [nM]	IC50 [3] [nM]
CCCS(=O)(=O)Nc1cc(-c2cnc3cc(OC)c(C4(O)CCOCC4)cn23)cc(F)c1OC [Example 127, N-(3-fluoro-5-(6-(4-hydroxytetrahydro-2H-pyran-4-yl)-7-methoxyimidazo[1,2-a]pyridin-3-yl)-2-methoxyphenyl)propane-1-sulfonamide]	50 to 250	> 80	1 to 2.5	1 to 2.5
CCS(=O)(=O)Nc1cc(-c2cnc3cc(OC)c(S(=O)(=O)C(C)(C)CO)cn23)cc(Cl)c1OC [Example 128, N-(3-chloro-5-(6-((1-hydroxy-2-methylpropan-2-yl)sulfonyl)-7-methoxyimidazo[1,2-a]pyridin-3-yl)-2-methoxyphenyl)ethanesulfonamide]	50 to 250	55 to 80	1 to 2.5	1 to 2.5
CCCS(=O)(=O)Nc1cc(-c2cnc3cc(OC)c(S(=O)(=O)C(C)(C)CO)cn23)cc(Cl)c1OC [Example 129, N-(3-chloro-5-(6-((1-hydroxy-2-methylpropan-2-yl)sulfonyl)-7-methoxyimidazo[1,2-a]pyridin-3-yl)-2-methoxyphenyl)propane-1-sulfonamide]	50 to 250	> 80	< 1	< 1
CCS(=O)(=O)Nc1cc(-c2cnn3cc(OCCO)c(S(=O)(=O)C(C)(C)C)cc23)cc(F)c1OC [Example 130, N-(5-(5-(tert-butylsulfonyl)-6-(2-hydroxyethoxy)pyrazolo[1,5-a]pyridin-3-yl)-3-fluoro-2-methoxyphenyl)ethanesulfonamide]	< 50	55 to 80	< 1	< 1
CCS(=O)(=O)Nc1cc(-c2cnn3cc(OC)c(N4C(=O)OCC4(C)C)nc23)cc(F)c1OC [Example 131, N-(5-(5-(4,4-dimethyl-2-oxooxazolidin-3-yl)-6-methoxypyrazolo[1,5-a]pyrimidin-3-yl)-3-fluoro-2-methoxyphenyl)ethanesulfonamide]	250 to 1000	> 80	2.5 to 20	2.5 to 20
CCCS(=O)(=O)Nc1cc(-c2cnn3cc(OC)c(S(=O)(=O)C(C)(C)CO)cc23)cc(F)c1OC [Example 132]	< 50	> 80	< 1	< 1
[2H]C([2H])([2H])Oc1c(F)cc(-c2cnc3cc(OC)c(S(=O)(=O)C(C)(C)C)cn23)cc1NS(=O)(=O)CC1COC1 [Example 133, N-(5-(6-(tert-butylsulfonyl)-7-methoxyimidazo[1,2-a]pyridin-3-yl)-3-fluoro-2-(methoxy-d3)phenyl)-1-(oxetan-3-yl)methanesulfonamide]	< 50	55 to 80	< 1	< 1
COc1cc2ncc(-c3cc(F)c(OC)c(NS(=O)(=O)c4ccn(C)n4)c3)n2cc1S(=O)(=O)C(C)(C)C [Example 134, N-(5-(6-(tert-butylsulfonyl)-7-methoxyimidazo[1,2-a]pyridin-3-yl)-3-fluoro-2-methoxyphenyl)-1-methyl-1H-pyrazole-3-sulfonamide]	< 50	> 80	< 1	1 to 2.5
COc1cc2ncc(-c3cc(F)c(OC)c(NS(=O)(=O)c4cnn(C)c4)c3)n2cc1S(=O)(=O)C(C)(C)C [Example 135, N-(5-(6-(tert-butylsulfonyl)-7-methoxyimidazo[1,2-a]pyridin-3-yl)-3-fluoro-2-methoxyphenyl)-1-methyl-1H-pyrazole-4-sulfonamide]	< 50	> 80	< 1	< 1
COc1cc2ncc(-c3cc(F)c(OC)c(NS(=O)(=O)c4cccnc4)c3)n2cc1S(=O)(=O)C(C)(C)C [Example 141, N-(5-(6-(tert-butylsulfonyl)-7-methoxyimidazo[1,2-a]pyridin-3-yl)-3-fluoro-2-methoxyphenyl)pyridine-3-sulfonamide]	< 50	> 80	< 1	< 1
